Source: patent US9150521B2, “Methods of preventing and treating diabetes by inhibiting serotonin synthesis” (The Trustees of Columbia University in the City of New York, priority 2012, dated 2015)

Legend:
epididymal fat pads = experiment: In vitro lipolysis of isolated fat pads; format: cell-based, mouse
Procedure: (§1) In vitro lipolysis assay was performed as described (4). Briefly, epididymal fat pads were isolated and washed several times in Hank's Balanced Salt Solution (HBSS) (Sigma). Tissue pieces (˜25 mg) were incubated in Dulbecco's Modified Eagle's Medium (DMEM) medium (Invitrogen) containing 2% fatty acid free bovine serum albumin (Sigma) at 37° C. for 1 h. After this preincubation, the fat explants were transferred into identical, fresh medium containing serotonin (Sigma) or 10 μM forskolin as a positive control and incubated further for the indicated time-points at 37° C. Afterwards, aliquots of medium were taken for measurements of FFAs and glycerol using available kits (NEFA-HR(2), WAKO Diagnostics; serum triglycerides determination kit, TR0100, Sigma) and tissue was lysed with RIPA buffer for subsequent Western blot analysis or in TRIZOL® (Invitrogen) for gene expression analysis.

WT mice [1] = experiment: Glucose tolerance test; format: in vivo
Text: (§2) Mice were housed under 12:12 light:dark cycle and chow and water were provided ad libitum. All animals were maintained according to NIH guidelines. The Htr2bflox/flox, Tph1flox/flox, and Villin-cre mice have been described previously (1). Alb-cre and aP2-cre mice were obtained from the Jackson Laboratory. For glucose tolerance tests mice were fasted overnight before i.p. injection of 2 g/kg body weight (BW) d-glucose in phosphate buffered saline (PBS) or 1 g/kg BW when mice were fed high fat diet. For pyruvate tolerance tests, mice were fasted overnight, injected i.p. with 2 g/kg BW sodium pyruvate in PBS. Glycerol tolerance test (4 g/kg BW) was performed after 4 h fasting. For insulin tolerance tests, mice were injected with 0.75 U/kg of insulin after 4 h fasting. Glucose was measured by tail vein bleeds at the indicated intervals using an ACCU-CHECK® glucometer. Measurement of free fatty acids (FFA) and glycerol were performed in plasma using a serum triglycerides determination kit (TR0100, Sigma) and a NEFA-HR(2) kit (WAKO Diagnostics). Plasma concentration of serotonin and glucagon were determined by Glucagon ELISA (Alpco, 48-GLUHU-E01) and Serotonin (Research) ELISA, (IBL-America, IB89540). Hyperinsulinemic-euglycemic clamp was performed in the University of Massachusetts Mouse Phenotyping Center, University of Massachusetts Medical School. […]

WT mice [2] = experiment: Pyruvate tolerance test (gluconeogenesis); format: in vivo
Text: as §2

[3] = reference 24 (Liu et al. 2008); cited from earlier work
WT mice [4] = experiment: Plasma levels of glycerol and FFA in mice; format: in vivo
Text: (§3) All animals were maintained according to NIH guidelines.

TPH1 = TPH1 (Mus musculus, UniProt P17532); conditions: WT mice fed a high fat diet; LP533401 100 mg/kg/day by gavage
Text: as §2

WT mice [5] = experiment: Insulin tolerance test; format: in vivo
Text: as §2

primary hepatocytes = experiment: In vitro glucose production in primary hepatocytes; format: cell-based, mouse; conditions: for conversion of glycerol to glucose in hepatocytes: primary hepatocytes, indicated doses of serotonin or 100 nM glucagon
Procedure: Production of glucose was assessed in primary, freshly isolated, attached hepatocytes. Briefly, cells were platted on 12 well plate format (200,000 cells per well). After isolation, the cells were allowed to attach and recover for 6 h in Williams E medium containing 10% fetal calf serum. Then they were washed and starved for 1 h in Dulbecco's Modified Eagle's DMEM without glucose and phenol red but with 2 mM L-glutamate and 0.5% BSA (D5030, Sigma). Then the cells were switched to the same medium or the same medium containing 10 mM glycerol and stimulated with the indicated substances for 6 h. Glucose concentration was determined in the medium using Amplex Red Glucose/Glucose Oxidase Assay Kit, (Invitrogen, A22189). Glucose production from glycerol was determined by subtracting glucose produced by the cells incubated without glycerol from this incubated with glycerol.

WT mice [6] = experiment: Glycerol tolerance test in WT mice implanted with serotonin-releasing pellets; format: in vivo; conditions: WT mice implanted with serotonin pellets vs placebo controls
Text: as §3

[7] = Plasma serotonin concentration in mice implanted with serotonin-releasing pellets; format: in vivo; conditions: WT mice, subcutaneous serotonin releasing pellets
Text: as §3
This was done by implanting subcutaneously serotonin releasing pellets in WT mice. These pellets increased circulating levels of serotonin approximately two-fold (FIG. 5C).

[8] = tested on: hormone sensitive lipase (HSL); experiment: Western blot of lipolytic enzymes in fat explants stimulated with serotonin; format: cell-based, mouse; conditions: 50 μM serotonin, Htr2b-dependent
Procedure: as §1
Western blotting was performed according to standard procedures. Frozen tissues or cells were homogenized and lysed with RIPA buffer. Membranes were blocked and then incubated overnight with primary antibody in TBST-5% BSA, followed by incubation with appropriate HRP-conjugated secondary antibody. Signals were visualized with ECL. […]

[9] = Htr2b-deficient fat pad explants, 50 μM serotonin or 1 μM isoproterenol
[10] = WT mice fed a normal diet, compared with Tph1gutΔ/Δ mice
[11] = mice fed a high fat diet, LP533401 100 mg/kg/day
[12] = WT mice fed a high fat diet, fasted for 4 h, LP533401 100 mg/kg/day
[13] = epididymal fat pads treated with increasing amounts of serotonin
[14] = fed WT mice, subcutaneous serotonin releasing pellets

TPH1, sequence (P17532 whole entry): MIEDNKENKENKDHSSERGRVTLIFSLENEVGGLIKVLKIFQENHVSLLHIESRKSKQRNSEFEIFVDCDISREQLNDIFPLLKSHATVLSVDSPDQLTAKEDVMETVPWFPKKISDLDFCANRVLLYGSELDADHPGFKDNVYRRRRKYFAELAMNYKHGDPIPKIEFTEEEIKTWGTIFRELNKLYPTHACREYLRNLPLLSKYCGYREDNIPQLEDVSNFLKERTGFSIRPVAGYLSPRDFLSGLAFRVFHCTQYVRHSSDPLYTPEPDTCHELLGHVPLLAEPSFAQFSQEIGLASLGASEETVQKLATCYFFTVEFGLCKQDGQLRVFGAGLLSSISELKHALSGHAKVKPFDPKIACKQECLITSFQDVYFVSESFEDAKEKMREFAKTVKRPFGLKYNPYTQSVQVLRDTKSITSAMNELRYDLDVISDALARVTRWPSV

With CC(C)NCC(O)c1ccc(O)c(O)c1 (stereo not drawn) [isoproterenol] as the compound, how does the “release of FFAs” value (epididymal fat pads; [9]) read?
Its value is “favored equally well”.

What about the release of glycerol (epididymal fat pads; [9]) of the same compound?
Its release of glycerol is “favored equally well”.

For Nc1nc(OC(c2ccc(-c3cccc(F)c3)cc2)C(F)(F)F)cc(-c2ccc(C[C@H](N)C(=O)O)cc2)n1 (stereo partly drawn) [LP533401], which glucose tolerance (WT mice [1]; [10]) is on record?
The glucose tolerance was “improved”.

And the glucose tolerance (WT mice [1]; [11])?
The glucose tolerance was “significantly improved”.

And the gluconeogenesis rate (WT mice [2]; WT mice fed a normal diet)?
The gluconeogenesis rate was “decreased”.

And the gluconeogenesis (WT mice [2]; [11])?
Its gluconeogenesis is “significantly improved”.

What about the “crossing of the blood-brain barrier” value [3] of the same compound?
The value was “does not cross efficiently the blood-brain barrier”.

What about the FFAs circulating levels (WT mice [4]; [12]) of the same compound?
Its FFAs circulating levels is “normalization”.

And the glycerol circulating levels (WT mice [4]; [12])?
Its glycerol circulating levels is “decrease”.

And the FFA levels (WT mice [4]; WT mice fed a normal diet)?
Its FFA levels is “decreased”.

What about the glycerol levels (WT mice [4]; WT mice fed a normal diet) of the same compound?
Its glycerol levels is “decreased”.

And the “reduction of circulating serotonin levels” value (TPH1)?
Its value is 80%.

And the insulin tolerance (WT mice [5]; [10])?
Its insulin tolerance is “improved”.

And the insulin sensitivity (WT mice [5]; [11])?
The insulin sensitivity was “normalized”.

With glucagon as the compound, how does the “conversion of glycerol to glucose in hepatocytes” value (primary hepatocytes) read?
The value was “stimulated”.

For NCCc1c[nH]c2ccc(O)cc12 [serotonin, 5-hydroxytryptamine], which “release of FFAs” value (epididymal fat pads; [9]) is on record?
Its value is “failed to enhance”.

What about the release of glycerol (epididymal fat pads; [9]) of the same compound?
The release of glycerol was “failed to enhance”.

What about the “release of FFAs” value (epididymal fat pads; [13]) of the same compound?
Its value is “significantly increased”.

What about the release of glycerol (epididymal fat pads; [13]) of the same compound?
The release of glycerol was “significantly increased”.

And the “blood glucose levels after glycerol” value (WT mice [6])?
Its value is “to a higher level than in controls”.

What about the “increase of circulating levels of serotonin” value [7] of the same compound?
Its value is “approximately two-fold”.

And the lipolysis (WT mice [4]; WT mice implanted with serotonin pellets, fasted for 4 h)?
The lipolysis was “further enhanced”.

What about the “circulating levels of FFAs” value (WT mice [4]; [14]) of the same compound?
The value was “significant increase”.

What about the “circulating levels of glycerol” value (WT mice [4]; [14]) of the same compound?
Its value is “significant increase”.

And the “glucose production from glycerol” value (primary hepatocytes; Htr2bΔ/Δ hepatocytes, 50 μM serotonin)?
Its value is “could not induce”.

What about the “conversion of glycerol to glucose in hepatocytes” value (primary hepatocytes) of the same compound?
Its value is “stimulated”.

And the “phosphorylation of hormone sensitive lipase (HSL) on serine residues 563 and 660” value [8]?
The value was “favored”.
